# Data: article PMC4187030, “Effect of cyclodextrin complexation on phenylpropanoids’ solubility and antioxidant activity” (Beilstein Journal of Organic Chemistry, 2014)
# Read-outs that look alike come from different tables or passages of the source.
# What was measured:
# [1] = Phase solubility studies, CRYSMEB
# Method: (§1) Phase solubility studies were carried out according to the method described by Higuchi and Connors. Excess amount of PP was added to 1 mL of CD solution at different concentrations ranging from 0 to 10 mM. The mixtures were shaken at 25 °C for 24 h then filtered through a 0.45 μm membrane filter. The concentration of PP in the filtrate was determined spectrophotometrically at the maximum wavelength corresponding to each PP. Phase solubility diagrams were obtained by plotting the solubility of PP as a function of CD concentration. Kf value of CD/PP inclusion complex was calculated from the linear segment of the phase–solubility diagrams using the following equation: […]
# (§2) where S0 is the intrinsic solubility of PP in the absence of CD and the Slope is the slope of the phase–solubility profile. The solubilizing potential of CD was evaluated by the complexation efficiency (CE) parameter. CE equal the complex to free CD concentration ratio and was calculated from the slope of the phase solubility diagram: […]
# (§3) where [CD/PP] is the concentration of dissolved inclusion complex and [CD] is the concentration of dissolved free CD. The CE can be used to calculate the PP:CD ratio as follows:
# (§4) The correlation between the CE and the molecular weight of CD or guest allowed the determination of the increase in formulation bulk which can be calculated using the following equation: […]
# (§5) where MWCD and MWPP are the molecular weight values of CD and PP, respectively.
# [2] = Formation constants (Kf) by UV–visible spectral displacement method, HP-β-CD; format: physicochemical; settings: UV–visible spectral displacement with MO (MO itself by direct titration), SD <10%
# Method: (§6) Formation constant (Kf) values were calculated using a UV–visible spectral displacement method. This method implies first the characterization of the inclusion complexes between CDs and the competitor (methyl orange, MO). The results are summarized in Table 1 in comparison with values from the literature.
# (§7) The UV–visible competition method with methyl orange (MO) as competitor was carried out according to the method described by Landy et al.. In order to calculate CD/PP Kf values, CD/MO inclusion complexes were firstly characterized by a direct titration method. Then, a spectral displacement method was applied by adding PP to a solution containing constant concentration of MO and CD. The addition of PP implied an absorbance increment leading to the calculation of CD/PP Kf values. Spectra were recorded between 520–530 nm for a MO concentration fixed at 0.1 mM. This wavelength range corresponds to the optimal spectral variation between the absorbance of free and complexed forms of MO. All Kf values were calculated by an algorithmic treatment applied to the first derivatives of UV spectra in order to avoid any spectral influence of diffraction phenomena. Absorption studies were performed using a UV–visible dual-beam spectrophotometer (Perkin Elmer Lambda 2S) with a 1 cm thick quartz cuvette.
# [3] = Formation constants (Kf) by UV–visible spectral displacement method, CRYSMEB; format: physicochemical; settings: UV–visible spectral displacement with MO (MO itself by direct titration), SD <10%
# Method: as §6, §7
# [4] = DPPH radical scavenging activity; settings: for Change of DPPH radical scavenging activity upon complexation with CDs: PP in 10 mM CD solution vs water; for Kinetic behavior of reaction with DPPH•: PP with ethanolic DPPH• solution; for DPPH radical scavenging (antioxidant) activity of PP alone: absence of CD, 1 h (3, 4, 6, 7) or 15 h (1, 2, 5), 25 °C
# Method: The 2,2-diphenyl-1-picrylhydrazyl (DPPH) radical scavenging activity of PP and their inclusion complexes was measured using the method described by Brand-Williams, Cuvelier, and Berset (1995) with some modifications. 1 mg of PP was dissolved in 50 mL of water, or 10 mM CD solution. 2 mL aliquot of the solution was vigorously mixed with 2 mL of ethanolic DPPH^• solution (0.1 mM). […]. Blank sample was prepared by mixing 2 mL of distilled water with 2 mL of DPPH^• solution. The scavenging activity was calculated using the following equation: […]
# where As and A0 are the absorbance of sample and blank sample, respectively.
# [5] = Phase solubility studies, RAMEB; settings: for Increase in formulation bulk / CE (complexation efficiency) / Kf: RAMEB; for Increase in formulation bulk: from CE and molecular weights; for CE (complexation efficiency): from slope of phase solubility diagram; for Kf: from slope of phase solubility diagram and S0, 25 °C; for St/S0 (solubility enhancement ratio): guest solubility in 10 mM RAMEB solution vs water
# Method: as §1, §2, §3, §4, §5
# [6] = Method: as §1, §2, §3, §4, §5
# [7] = Intrinsic solubility (S0) of PP in water; format: physicochemical; settings: thermodynamic from solid, absence of CD, 25 °C
# Method: as §1, §2
# [8] = Formation constants (Kf) by UV–visible spectral displacement method, β-CD; format: physicochemical; settings: UV–visible spectral displacement with MO (MO itself by direct titration), SD <10%
# Method: as §6, §7
# [9] = Phase solubility studies, HP-β-CD
# Method: as §1, §2, §3, §4, §5
# [10] = Formation constants (Kf) by UV–visible spectral displacement method, RAMEB; format: physicochemical; settings: UV–visible spectral displacement with MO (MO itself by direct titration), SD <10%
# Method: as §6, §7
# [11] = Formation constants (Kf) by UV–visible spectral displacement method, α-CD; format: physicochemical; settings: UV–visible spectral displacement with MO (MO itself by direct titration), SD <10%
# Method: as §6, §7
# [12] = design: method as in earlier work; settings: cited from earlier work
# [13] = Phase solubility studies, β-CD
# Method: as §1, §2, §3, §4, §5
# [14] = α-CD; ref 24; cited from earlier work
# [15] = CRYSMEB, cited from earlier work
# [16] = β-CD, cited from earlier work
# [17] = RAMEB, cited from earlier work
# [18] = HP-β-CD, cited from earlier work
structure (smiles),measurement,setting,value
"O=C(O)/C=C/c1ccc(O)cc1 [p-Coumaric acid (5), p-coumaric acid]",Increase in formulation bulk,"[1]; CRYSMEB, from CE and molecular weights",11
same,CE (complexation efficiency),"[1]; CRYSMEB, from slope of phase solubility diagram",1.89
same,Kf,"[1]; CRYSMEB, from slope of phase solubility diagram and S0, 25 °C",900 M⁻¹
same,St/S0 (solubility enhancement ratio),[1]; guest solubility in 10 mM CRYSMEB solution vs water,4
same,Formation constant (Kf),[2],787 M⁻¹
same,Formation constant (Kf),[3],668 M⁻¹
same,Change of DPPH radical scavenging activity upon complexation with CDs,[4],kept unchanged
same,Kinetic behavior of reaction with DPPH•,[4],slow kinetic behavior
same,DPPH radical scavenging (antioxidant) activity of PP alone,[4],higher antioxidant activity
same,Increase in formulation bulk,[5],11
same,CE (complexation efficiency),[5],2.57
same,Kf,[5],1228 M⁻¹
same,St/S0 (solubility enhancement ratio),[5],4.4
same,CE (complexation efficiency),[6],4.17
same,Increase in formulation bulk,[6],7
same,Kf,[6],1988 M⁻¹
same,Molar ratio (PP:CD),[6],1:1.24
same,solubility at 24 h,[7],344 µg/mL
same,Formation constant (Kf),[8],338 M⁻¹
same,Increase in formulation bulk,"[9]; HP-β-CD, from CE and molecular weights",13
same,CE (complexation efficiency),"[9]; HP-β-CD, from slope of phase solubility diagram",2.30
same,Kf,"[9]; HP-β-CD, from slope of phase solubility diagram and S0, 25 °C",1099 M⁻¹
same,St/S0 (solubility enhancement ratio),[9]; guest solubility in 10 mM HP-β-CD solution vs water,4.4
same,Formation constant (Kf),[10],1030 M⁻¹
same,Formation constant (Kf),[11],1816 M⁻¹
same,log P,[12],1.43
same,St/S0 (solubility enhancement ratio),[13]; guest solubility in 10 mM β-CD solution vs water,2.8
same,Increase in formulation bulk,"[13]; β-CD, from CE and molecular weights",18
same,CE (complexation efficiency),"[13]; β-CD, from slope of phase solubility diagram",0.64
same,Kf,"[13]; β-CD, from slope of phase solubility diagram and S0, 25 °C (linear portion for 1 and 2)",306 M⁻¹
"C=CCc1ccc(O)c(OC)c1 [Eugenol (4), eugenol]",CE (complexation efficiency),[1],2.78
same,Increase in formulation bulk,[1],10
same,Kf,[1],440 M⁻¹
same,Molar ratio (PP:CD),[1],1:1.36
same,Formation constant (Kf),[14],94 M⁻¹
same,Formation constant (Kf),[2],436 M⁻¹
same,Change of DPPH radical scavenging activity upon complexation with CDs,[4],kept unchanged
same,Kinetic behavior of reaction with DPPH•,[4],reacted rapidly
same,DPPH radical scavenging (antioxidant) activity of PP alone,[4],higher antioxidant activity
same,Formation constant (Kf),[15]; ref 21,401 M⁻¹
same,Formation constant (Kf),[15]; ref 24,454 M⁻¹
same,Increase in formulation bulk,[5],11
same,CE (complexation efficiency),[5],3.48
same,Kf,[5],550 M⁻¹
same,St/S0 (solubility enhancement ratio),[5],2.2
same,CE (complexation efficiency),[6],1.56
same,Increase in formulation bulk,[6],10
same,Kf,[6],246 M⁻¹
same,Molar ratio (PP:CD),[6],1:1.64
same,solubility at 24 h,[7],1040 µg/mL
same,Formation constant (Kf),[16]; ref 21,322 M⁻¹
same,Formation constant (Kf),[16]; ref 24,264 M⁻¹
same,Formation constant (Kf),[16]; ref 25,357 M⁻¹
same,CE (complexation efficiency),[9],2.81
same,Increase in formulation bulk,[9],12
same,Kf,[9],445 M⁻¹
same,Molar ratio (PP:CD),[9],1:1.36
same,Formation constant (Kf),[17]; ref 21,521 M⁻¹
same,Formation constant (Kf),[17]; ref 24,568 M⁻¹
same,Formation constant (Kf),[18]; ref 21,445 M⁻¹
same,Formation constant (Kf),[18]; ref 24,462 M⁻¹
same,Formation constant (Kf),[11],350 M⁻¹
same,log P,[12],2.100
same,CE (complexation efficiency),[13],3.25
same,Increase in formulation bulk,[13],9
same,Kf,[13],513 M⁻¹
same,Molar ratio (PP:CD),[13],1:1.31
